Reference: patent US12576040B2, “Ionizable lipids and methods of manufacture and use thereof” (priority 2020, dated 2026)
Where two headings read alike, the source gives them in different places.

How the values were obtained:
[1] = format: physicochemical; conditions: Table 11a
Description: In certain embodiments, the pKa of the Ionizable Lipids of the Invention included in the LNP is measured by fluorescent enhancement of an anionic lipophilic dye TNS binding to the LNP containing the ionizable lipid. Prior studies have shown that the TNS pKa needs to be near 6.5 for efficient delivery to liver upon IV administration. The pKa in the aqueous phase can be predicted by software such ACDLabs Percepta, resulting in pKas that are higher than the TNS pKa. Given the importance of the LNP pKa in determining their efficiency, we developed new methods (zeta potential, ^1H NMR, modeling) to link the intrinsic pKa of the ionizable lipid to LNP ionization properties, in order to rationally design effective systems for mRNA delivery.
In certain embodiments, the hydrophilic DMG-PEG forms the shell of the LNP. The amount of nucleic acid is represented by the NP mole ratio of the amine on the ionizable lipid to the phosphate groups on the nucleic acid backbone and is typically 3-6. In certain embodiments, the pKa of the LNP to be in the 6-7 range corresponding to the pH in the early endosome. […] The pKa of the LNP was measured using the pH-dependence of fluorescence enhancement of the anionic dye TNS. In certain embodiments, the pKa-dependent endosomal release mechanism was described as an ion-pairing event between the cationic protonated ionizable lipid and anionic endosomal phospholipids where a divergent cone-shape lipid tail of the ionizable lipid facilitates membrane rupture.

[2] = system: HEK 293 cells; test: Firefly Luciferase Assay for mRNA Delivery Efficiency / transfection in vitro; format: cell-based; design: key: +: successfully transfected HEK 293 cells in vitro; −: not active; conditions: Table 13C
Source text: FIG. 32 illustrates luciferase reported expression in vitro and in vivo.
In certain embodiments, the invention encompasses a new class of ionizable lipids (the Ionizable Lipids of the Invention) synthesized bearing two ionizable amines and two degradable ester linkers to linoleic acid tails or branched tails. DL=DiLinoleic Acid, ADDE=Azane Diyl DiEthyl, Cx/Cy=carbon spacers, DMA=DiMethylAmine, Pyr=Pyridine, PipZ=PiperaZine, PipD=PiperiDine, DIPA=DiIsopropylamine, DM=DiMethyl, BOD=BisOctylDecyl.
Summary: LNPs were formulated using total lipid concentration of 50 mM comprised of ionizable lipids/DSPC/Cholesterol/PEG-DMG (50:10:38.5:1.5 mol %). Each one of the lipids were solubilized in ethanol until a clear solution was observed. The four lipids were combined to get 50 mM total lipid concentration (25/5/19.25/0.75 mM respectively) and serial dilutions to get 27.74 mM. […] Purified mRNA was ethanol precipitated, washed and resuspended in nuclease-free water to reach a concentration of 1 mg/ml. […] 16 μl Lipid Mix and 32 μl mRNA solution were mixed on Setting 3 and ejected into 48 μl 1×DPBS pH 7.4. The formed LNPS were then diluted into an additional 96 μl 1×DPBS pH 7.4. LNPs were then dialyzed against 1×DPBS pH 7.4 for 6×1 hr. LNPs were then diluted so that 32 ul contained 200 ng and 12K HEK293 cells were transfected with the same […]. • A: Firefly Luciferase Assay for mRNA Delivery Efficiency. After 24 hours of transfection, transfected cells were conditioned to room temperature for 30 minutes prior to the Firefly Luciferase Assay. Quantilum Recombinant Luciferase standard curve was prepared in 10% EMEM in 5-fold serial dilutions. 50 ul of each standard point from the range of 3.9×10^−5 mg/ml to 4.88×10^−3 mg/ml were included in the microplate as a positive enzyme activity control (data not shown) to maintain a linearity of 10^7 RLU/mg/ml. The ONE-Glo substrate, previously conditioned to room temperature for at least 4 hours, was added to each untransfected, transfected and Quantilum wells in a ratio 1:1. Assay plates were incubated for 3 minutes in darkness and immediately introduced into the Cytation 5 Cell Imaging Multi-Mode Reader (Biotek) to read luminescence. The results are illustrated in FIG. 7. • B: Ribogreen Assay for mRNA Encapsulation Efficiency. 1×TE Buffer and Triton Buffer (2% v/v in 1×TE Buffer) were added in duplicates into a black microplate per LNP. LNPs were diluted to 4 ng/ul in 1×DPBS pH 7.4 and added to each TE/Triton well in a ratio 1:1. Two standard curves were included in the Ribogreen Assay, one containing mRNA and 1×TE Buffer and other containing mRNA and Triton Buffer. Each one of these standard curves were used to calculate the mRNA concentration in each TE Buffer or Triton Buffer. This approach using two standard curves is more accurate for calculating the encapsulation efficiency and mRNA concentrations, in comparison to a single standard curve. Standards were included in the microplate after diluted LNPs were added to the plate. Microplates were incubated at 37° C. for 10 minutes to extract LNPs with Triton. Ribogreen reagent was diluted 1:100 in 1×TE Buffer and added to each well in a ratio 1:1. Microplates were immediately introduced into the Cytation 5 Cell Imaging Multi-Mode Reader (Biotek) to read Fluorescence (Ex485/Em528). The results are illustrated in FIG. 8. • C: Dynamic Light Scattering for LNP Size (red dots are PDI right y axis). LNPs were diluted to 6.25 ng/ul in 1×DPBS pH 7.4 and transferred into a quartz cuvette (ZEN2112) to measure size by Dynamic Light Scattering (DLS) in the Zetasizer Nano ZS (Malvern Panalytical) using particle RI of 1.45 and Absorption of 0.001 in 1×PBS at 25° C. with viscosity of 1.02 cP and RI of 1.335.

[3] = physchem; format: physicochemical; conditions: for pKa: water soluble analogue
Description: The pH-dependence of proton NMR chemical shifts was used to measure the pKa's of the ionizable lipid water-soluble analogues (WSA) following published methods5,6. Chemical shifts of piperazine, imidazole, 2-chloroacetic acid and acetic acid were used as internal pH indicators. Solutions for MC3-WSA were prepared with 100 mM KCl, 2 mM piperazine, 2 mM imidazole, and 5 mM water soluble ionizable lipid analogue in 95% H2O-5% D2O. Solutions for the terminal(N1) and aza amines(N2) at the p-position of carboxylic esters of C24-WSA were prepared with 100 mM KCl, 2 mM piperazine, 2 mM imidazole, 0.2 mM DSS, and 5 mM water soluble ionizable lipid analogue in 95% H2O-5% D2O. Solutions for the internal amine (N3) of C24-WSA were prepared with 100 mM KCl, 2 mM chloroacetic acid, 2 mM acetic acid, 0.2 mM DSS, and 5 mM water soluble ionizable lipid analogue in 95% H2O-5% D2O. Solutions were split into two equal volumes and one titrated to a lower pH using 0.1 M HCl and the other to an upper pH using 0.1 M NaOH where the lower and upper pH bracketed the desired range of pH. Intermediate pH values were obtained by mixing different proportions of these two solutions. NMR measurements were performed on a Bruker 400 MHz spectrometer where 1H spectra were acquired at each of ˜24 pH values ranging from the lower to upper pH. […] Chemical shifts from piperazine, imidazole, 2-chloroacetic acid, and acetic acid were then used to calculate the pH of each solution according to published methods5,6 and the chemical shifts of protons adjacent to each nitrogen in the ionizable lipid water sluble analogue headgroup were fit to the Henderson-Hasselbalch equation to provide the pKa of each Nitrogen. Spectra are in Supplementary FIG. 2.

Row | Structure (SMILES) | ΔpKa = Classic-Galas [1] | ΔpKa = Classic-TNS [1] | Transfection +/− [2] | other results
1 | CCCCCCCC(=O)N(CCCN(C)C)C(CCCCCCCCC(=O)OC(CCCCCC)CCCCCC)CCCCCCCCC(=O)OC(CCCCCC)CCCCCC [Acuitas Compound 10] | 3.04 | 3.24 |  | 
2 | CCCCC/C=C\C/C=C\CCCCCCCCOCC(CN(C)C)OCCCCCCCC/C=C\C/C=C\CCCCC (stereo not shown) [DLinDMA, 1,2-dilinoleyloxy-N,N-dimethylaminopropane] | 1.6 | 1.8 |  | 
3 | CCCCC/C=C\C/C=C\CCCCCCCCC1(CCCCCCCC/C=C\C/C=C\CCCCC)OCC(CCN(C)C)O1 (stereo not shown) [KC2] | 2.32 | 2.62 |  | 
4 | CCCCC/C=C\C/C=C\CCCCCCCC(=O)NCCSSCCN [L-Amide-AEDS] |  |  | − | 
5 | CCCCC/C=C\C/C=C\CCCCCCCC(=O)NCCN [L-Amide-AE] |  |  | − | 
6 | CCCCC/C=C\C/C=C\CCCCCCCC(=O)NCCN(C)C [L-Amide-DMA] |  |  | − | 
7 | CCCCCCCCCCC(CCCCCCCC)COC(=O)CCN(CCCCN1CCN(C)CC1)CCC(=O)OCC(CCCCCCCC)CCCCCCCCCC (stereo not shown) [Lipid C24, Bis(2-octyldodecyl) 3,3′-((4-(4-methylpiperazin-1-yl)butyl)azanediyl)dipropionate] |  |  |  | difference between NMR-measured and theoretical pKas [3]: ≤ 0.4 units
8 | CN1CCN(CCCCN(CCC(=O)OC(C)(C)C)CCC(=O)OC(C)(C)C)CC1 [Lipid C24-WSA] |  |  |  | difference between NMR-measured and theoretical pKas [3]: ≤ 0.4 units; pKa ([3]; read-out: pKa by 1H NMR, central nitrogen): 3.7; pKa ([3]; read-out: pKa by 1H NMR, nitrogen closest to the linker): 7.5; pKa ([3]; read-out: pKa by 1H NMR, terminal nitrogen): 8.1
9 | CCCCCCCCCOC(=O)CCCCCCCN(CCO)CCCCCCCC(=O)OC(CCCCCCCC)CCCCCCCC [Moderna Lipid 5] | 3.34 | 2.34 |  | 
